This is an account of results in publication PMC3362676 (Cellular Signalling, 2012).

One data set has as its target kB2R (Homo sapiens, UniProt P30411). The following applies: HEK-kB2R.
The conditions of data set [1]: ref [2], [9], [21], [24]; cited from earlier work.
The test system of data set [2] is HEK cells stably expressing kB1R. The following applies: HEK cells expressing only the kB1R; 10 μM peptide in PBS; 30 min, 37 °C; HPLC.
The test system of the next data set is CPM. In words: HEK cells stably expressing CPM, in PBS. The settings on record: human, 37 °C, up to 30 min.

Ends that are not written are not given here. Peptide text beside a SMILES is read from it.

Sequence of kB2R (P30411 whole entry): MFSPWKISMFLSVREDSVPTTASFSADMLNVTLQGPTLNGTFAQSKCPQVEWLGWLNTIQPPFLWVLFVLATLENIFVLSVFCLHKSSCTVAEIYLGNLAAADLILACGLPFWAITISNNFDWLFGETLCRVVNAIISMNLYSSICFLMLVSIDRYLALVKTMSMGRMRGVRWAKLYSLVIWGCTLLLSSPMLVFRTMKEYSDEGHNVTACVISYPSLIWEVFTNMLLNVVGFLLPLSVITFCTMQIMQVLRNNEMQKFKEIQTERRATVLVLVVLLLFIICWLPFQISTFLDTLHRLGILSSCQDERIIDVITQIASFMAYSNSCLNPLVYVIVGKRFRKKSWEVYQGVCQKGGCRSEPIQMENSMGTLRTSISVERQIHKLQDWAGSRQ

Take `N=C(N)NCCC[C@H](NC(=O)[C@H](Cc1ccccc1)NC(=O)[C@@H]1CCCN1C(=O)[C@H](CO)NC(=O)[C@H](Cc1ccccc1)NC(=O)CNC(=O)[C@@H]1CCCN1C(=O)[C@@H]1CCCN1C(=O)[C@@H](N)CCCNC(=N)N)C(=O)O` [BK, Bradykinin] (H-RPPGFSPFR-OH): the “maximal ERK1/2 phosphorylation maintained from 40 – 60 min” value on kB2R (1 μM BK, 40 – 60 min) was 40%.

For the molecule `NC(N)=NCCC[C@H](NC(=O)[C@H](Cc1ccccc1)NC(=O)[C@@H]1CCCN1C(=O)[C@H](CO)NC(=O)[C@H](Cc1ccccc1)NC(=O)CNC(=O)[C@@H]1CCCN1C(=O)[C@@H]1CCCN1C(=O)[C@@H](N)CCCN=C(N)N)C(=O)O` [BK, Bradykinin] (H-RPPGFSPFR-OH), the lifetime in vivo entry in data set [1] is “lower than 30 seconds”. Besides, the hydrolysis of peptide result in data set [2] is on record as “no detectable hydrolysis”.

Regarding `NCCCC[C@H](N)C(=O)N[C@@H](CCCN=C(N)N)C(=O)N1CCC[C@H]1C(=O)N1CCC[C@H]1C(=O)NCC(=O)N[C@@H](Cc1ccccc1)C(=O)N[C@@H](CO)C(=O)N1CCC[C@H]1C(=O)N[C@@H](Cc1ccccc1)C(=O)N[C@@H](CCCN=C(N)N)C(=O)O` [KD, Kallidin], the “maximal ERK1/2 activation still remaining at 40 min” value at kB2R (1 μM KD, 40 min) turned out to be 80%. For the same molecule, in data set [1], the lifetime in vivo entry is listed as “lower than 30 seconds”.

Consider KRPPGFSPFK, for which the cleaved bond entry with CPM is recorded as “Phe-Lys10, 30 min”.

For the molecule RPPGFSPFK, in the data set on CPM, the cleaved bond result is given as “Phe-Lys9, 30 min”.

As for RPPGFSPFR, the cleaved bond entry in the data set on CPM is “Phe-Arg9, 30 min”.
